In ChEMBL document CHEMBL1138857, “Quinol-4-ones as steroid A-ring mimetics in nonsteroidal dissociated glucocorticoid agonists” (J Med Chem, 2006):

Key:
[1] = molecular target: T1, Progesterone receptor (Homo sapiens, UniProt P06401); test: Inhibition of tetramethylrhodamine labeled RU486 binding to PR by FP assay
T1 sequence (P06401 whole entry): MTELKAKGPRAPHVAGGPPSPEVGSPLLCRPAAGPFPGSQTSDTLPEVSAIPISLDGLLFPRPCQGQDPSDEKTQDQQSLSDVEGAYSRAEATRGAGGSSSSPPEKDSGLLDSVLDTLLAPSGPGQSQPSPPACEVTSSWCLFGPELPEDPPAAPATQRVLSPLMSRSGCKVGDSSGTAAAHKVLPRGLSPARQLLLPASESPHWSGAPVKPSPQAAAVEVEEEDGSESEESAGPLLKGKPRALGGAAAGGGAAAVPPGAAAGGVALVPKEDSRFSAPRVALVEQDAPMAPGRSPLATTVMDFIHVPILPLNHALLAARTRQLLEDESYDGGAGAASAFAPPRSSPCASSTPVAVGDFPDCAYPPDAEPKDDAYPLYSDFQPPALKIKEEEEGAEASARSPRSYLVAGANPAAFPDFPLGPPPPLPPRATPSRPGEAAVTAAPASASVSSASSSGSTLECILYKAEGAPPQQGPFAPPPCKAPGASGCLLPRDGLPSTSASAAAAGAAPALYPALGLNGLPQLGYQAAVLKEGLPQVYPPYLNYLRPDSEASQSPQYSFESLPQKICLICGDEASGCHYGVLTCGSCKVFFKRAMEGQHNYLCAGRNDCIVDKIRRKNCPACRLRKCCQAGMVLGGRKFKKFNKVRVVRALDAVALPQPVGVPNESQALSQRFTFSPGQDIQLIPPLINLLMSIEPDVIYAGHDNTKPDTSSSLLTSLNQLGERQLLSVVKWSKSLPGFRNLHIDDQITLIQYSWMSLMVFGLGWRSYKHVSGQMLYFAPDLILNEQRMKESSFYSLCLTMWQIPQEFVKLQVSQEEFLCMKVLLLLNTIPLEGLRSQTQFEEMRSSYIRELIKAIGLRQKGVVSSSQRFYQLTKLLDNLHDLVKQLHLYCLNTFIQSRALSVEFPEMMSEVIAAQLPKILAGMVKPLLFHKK

[2] = molecular target: T2, Mineralocorticoid receptor (Homo sapiens, UniProt P08235); test: Inhibition of tetramethylrhodamine labeled dexamethasone binding to MR by FP assay
T2 sequence (P08235 whole entry): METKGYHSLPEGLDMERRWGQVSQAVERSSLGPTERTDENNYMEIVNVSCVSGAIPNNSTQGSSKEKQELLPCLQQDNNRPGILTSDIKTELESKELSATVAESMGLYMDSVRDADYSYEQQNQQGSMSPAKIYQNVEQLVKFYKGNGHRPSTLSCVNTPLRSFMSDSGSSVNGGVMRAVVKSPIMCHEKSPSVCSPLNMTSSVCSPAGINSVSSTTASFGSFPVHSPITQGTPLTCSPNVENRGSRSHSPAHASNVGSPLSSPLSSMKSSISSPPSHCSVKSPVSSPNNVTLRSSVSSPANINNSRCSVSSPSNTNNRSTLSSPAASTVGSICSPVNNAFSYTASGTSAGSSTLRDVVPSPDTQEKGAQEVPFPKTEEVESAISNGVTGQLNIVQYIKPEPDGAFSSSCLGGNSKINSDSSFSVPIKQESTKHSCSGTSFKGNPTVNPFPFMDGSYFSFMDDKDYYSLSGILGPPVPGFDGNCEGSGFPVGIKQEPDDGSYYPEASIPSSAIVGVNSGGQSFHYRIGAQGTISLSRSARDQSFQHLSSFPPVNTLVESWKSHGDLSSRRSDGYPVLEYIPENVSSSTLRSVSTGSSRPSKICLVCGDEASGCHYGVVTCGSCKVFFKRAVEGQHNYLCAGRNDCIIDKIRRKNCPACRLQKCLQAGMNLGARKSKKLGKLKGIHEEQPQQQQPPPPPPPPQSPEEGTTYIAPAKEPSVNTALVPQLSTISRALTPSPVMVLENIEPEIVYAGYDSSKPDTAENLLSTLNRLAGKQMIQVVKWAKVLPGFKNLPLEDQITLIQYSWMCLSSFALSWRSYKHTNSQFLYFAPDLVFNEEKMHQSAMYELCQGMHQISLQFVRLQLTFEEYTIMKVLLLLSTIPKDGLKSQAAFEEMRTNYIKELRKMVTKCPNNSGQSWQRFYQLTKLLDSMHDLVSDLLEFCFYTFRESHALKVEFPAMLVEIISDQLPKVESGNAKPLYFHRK

[3] = tested on: HFF; test: Inhibition of IL1-stimulated IL6 production in HFF cells; type: functional, cell-based; conditions: Homo sapiens
[4] = tested on: HFF; test: Inhibition of IL1-stimulated IL6 production in HFF cells relative to Dexamethasone; type: functional, Homo sapiens
[5] = molecular target: T3, Glucocorticoid receptor (Homo sapiens, UniProt P04150)
T3 sequence (P04150 whole entry): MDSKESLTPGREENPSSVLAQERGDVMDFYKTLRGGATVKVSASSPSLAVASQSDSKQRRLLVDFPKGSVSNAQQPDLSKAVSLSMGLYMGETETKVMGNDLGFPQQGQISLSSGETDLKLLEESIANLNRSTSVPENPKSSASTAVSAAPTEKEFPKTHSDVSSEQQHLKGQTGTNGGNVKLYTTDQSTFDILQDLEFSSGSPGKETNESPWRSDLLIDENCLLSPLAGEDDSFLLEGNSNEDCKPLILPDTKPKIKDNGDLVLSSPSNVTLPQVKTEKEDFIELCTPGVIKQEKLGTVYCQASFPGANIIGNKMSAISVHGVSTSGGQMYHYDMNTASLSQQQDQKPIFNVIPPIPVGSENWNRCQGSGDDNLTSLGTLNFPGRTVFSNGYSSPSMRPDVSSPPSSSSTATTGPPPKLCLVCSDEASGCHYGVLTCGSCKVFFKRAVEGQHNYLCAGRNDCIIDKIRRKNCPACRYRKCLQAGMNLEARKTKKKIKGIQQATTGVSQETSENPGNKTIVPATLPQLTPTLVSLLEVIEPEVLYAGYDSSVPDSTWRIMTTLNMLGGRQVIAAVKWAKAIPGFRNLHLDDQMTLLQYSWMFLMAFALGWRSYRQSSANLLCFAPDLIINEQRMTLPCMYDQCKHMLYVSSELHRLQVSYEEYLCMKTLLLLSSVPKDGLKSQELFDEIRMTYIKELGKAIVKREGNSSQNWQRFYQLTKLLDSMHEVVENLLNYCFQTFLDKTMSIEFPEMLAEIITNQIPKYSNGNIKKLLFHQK

[6] = tested on: HFF; test: Induction of aromatase activity in HFF cells assessed as production of beta estradiol by aromatase assay; type: functional, cell-based; conditions: Homo sapiens
[7] = tested on: HFF; test: Induction of aromatase activity in HFF cells assessed as production of beta estradiol by aromatase assay relative to Dexamethasone; type: functional, Homo sapiens
[8] = tested on: HeLa; test: Activation of MMTV in HeLa cells measured by luciferase activity; type: functional, cell-based; conditions: Homo sapiens
[9] = tested on: HeLa; test: Activation of MMTV in HeLa cells measured by luciferase activity relative to Dexamethasone; type: functional, Homo sapiens
[10] = tested on: Mus musculus; test: Inhibition of LPS-stimulated TNFalpha production in BALB/c mouse at 10 mg/kg, po; type: functional

SMILES | IC50 [1] [nM] | IC50 [2] [nM] | IC50 [3] [nM] | Efficacy [4] [%] | IC50 [5] [nM] | EC50 [6] [nM] | Efficacy [7] [%] | EC50 [8] [nM] | Efficacy [9] [%] | inhibition in vivo at 10 mg/kg [10] [%]
COc1ccc(F)cc1C(C)(C)CC(O)(CN1C[C@H](C)O[C@@H](C)C1)C(F)(F)F (some centres undefined) | > 2000 | 1500 | > 2000 | 41 | 110 |  |  |  |  | 
COc1ccc(F)cc1C(C)(C)CC(O)(Cn1cnc(=O)c2ccccc21)C(F)(F)F (centres undefined) | > 2000 | > 2000 |  |  | 690 |  |  |  |  | 
COc1ccc(C)c(C(C)(C)CC(O)(Cn2ccc(=O)c3ccccc32)C(F)(F)F)c1 (centres undefined) | 525 | 91 | 17 | 86 | 11 | 95 | 65 | > 2000 | 6 | 
Cc1ccc(F)cc1C(C)(C)CC(O)(Cn1ccc(=O)c2cnccc21)C(F)(F)F (centres undefined) |  |  | 47 | 59 | 48 | > 2000 | 14 |  |  | 58
CC(C)(CC(O)(Cn1ccc(=O)c2ccccc21)C(F)(F)F)c1ccccc1 (centres undefined) | 106 | 350 | 78 | 48 | 28 |  |  |  |  | 
COc1ccc(F)cc1C(C)(C)CC(O)(Cn1cc(C)c(=O)c(C)c1)C(F)(F)F (centres undefined) | > 2000 | 1900 | 53 | 87 | 120 | 170 | 77 | > 2000 | 3 | 
COc1ccc(F)cc1C(C)(C)CC(O)(CN1CCC(=O)CC1)C(F)(F)F (centres undefined) | > 2000 | > 2000 |  |  | 1400 |  |  |  |  | 
COc1ccc(F)cc1C(C)(C)CC(O)(Cn1cnc2ccccc21)C(F)(F)F (centres undefined) | > 2000 | 775 | > 2000 | 15 | 54 |  |  |  |  | 
CC(C)(CC(O)(Cn1ccc(=O)c2ccccc21)C(F)(F)F)c1ccc(F)cc1O (centres undefined) | 340 | 880 |  | 88 | 3 | 17 | 82 | 15 | 35 | 
COc1ccc(F)cc1C(C)(C)CC(O)(Cn1ccc(=O)c2cnccc21)C(F)(F)F (centres undefined) | > 2000 | 175 | 35 | 72 | 34 |  | 39 | > 2000 | 1 | 
COc1ccc(F)cc1C(C)(C)CC(O)(Cn1ccc(=O)cc1)C(F)(F)F (centres undefined) | > 2000 | > 2000 |  |  | > 2000 |  |  |  |  | 
COc1ccc(F)cc1C(C)(C)CC(O)(Cn1ccc(=O)c2ncccc21)C(F)(F)F (centres undefined) | > 2000 | 1100 | 56 | 78 | 77 |  | 41 |  |  | 
Cc1ccc(O)c(C(C)(C)CC(O)(Cn2ccc(=O)c3ccccc32)C(F)(F)F)c1 (centres undefined) | 160 | 160 | 5.6 | 93 | 8 |  |  |  |  | 
C[C@@H]1C[C@H]2[C@@H]3CCC4=CC(=O)C=C[C@]4(C)[C@@]3(F)[C@@H](O)C[C@]2(C)[C@@]1(O)C(=O)CO [DEXAMETHASONE] | > 2000 |  | 0.51 |  |  | 1.9 |  | 17 |  | 
COc1ccc(F)cc1C(C)(C)CC(O)(CN1CCOCC1)C(F)(F)F (centres undefined) | > 2000 | > 2000 |  |  | > 2000 |  |  |  |  | 
Cc1cn(CC(O)(CC(C)(C)c2cccc3c2OCC3)C(F)(F)F)cc(C)c1=O (centres undefined) |  |  | 39 | 77 | 34 |  | 26 |  |  | 49
COc1ccc(F)cc1C(C)(C)CC(O)(CN1CCCc2ccccc21)C(F)(F)F (centres undefined) | > 2000 | 1600 |  |  | 950 |  |  |  |  | 
Cc1ccc(O)cc1C(C)(C)CC(O)(Cn1ccc(=O)c2ccccc21)C(F)(F)F (centres undefined) | > 2000 | > 2000 |  |  | 780 |  |  |  |  | 
COc1ccc(F)cc1C(C)(C)CC(O)(C(=O)Nc1ccc2c(=O)onc(C)c2c1)C(F)(F)F (centres undefined) | 22 | 130 | > 2000 | 19 | 8 |  |  |  |  | 
CC(C)(CC(O)(Cn1ccc(=O)c2ccccc21)C(F)(F)F)c1cccc2c1OCC2 (centres undefined) | 48 | 98 | 11 | 86 | 4 |  | 60 |  |  | 49
COc1ccc(F)cc1C(C)(C)CC(O)(Cn1cc(C)nc1C)C(F)(F)F (centres undefined) | > 2000 | 620 |  |  | 650 |  |  |  |  | 
COc1ccc(F)cc1C(C)(C)CC(O)(Cn1ccnc1)C(F)(F)F (centres undefined) | > 2000 | > 2000 |  |  | > 2000 |  |  |  |  | 
Cc1noc(=O)c2ccc(NC(=O)C(O)(CC(C)(C)c3cccc4c3OCC4)C(F)(F)F)cc12 (centres undefined) |  | 38 | 59 | 80 |  | 91 | 56 | > 2000 | 14 | 
Cc1ccc(F)cc1C(C)(C)CC(O)(Cn1cc(C)c(=O)c(C)c1)C(F)(F)F (centres undefined) |  |  | 70 | 71 | 125 | > 2000 | 20 |  |  | 48
CC(C)(CC(O)(Cn1ccc(=O)c2ccccc21)C(F)(F)F)c1ccccc1O (centres undefined) | 555 | 450 | 6 | 90 | 6 |  |  |  |  | 
